Measured values: patent US20230263909A1, “ENHANCED EFFECTS OF GENE-IMMUNOTHERAPY AND IMMUNOSUPPRESSANTS IN MULTIPLE SCLEROSIS” (University of Florida Research Foundation, Incorporated, priority 2020, published 2023)
Read-outs that look alike come from different tables or passages of the source.

Tests used:
MOG35-55-induced EAE = settings: vector at MCS <2.5, PRDL at MCS ≥ 3.0 (FIG. 33A)
Method: Using 8-week-old Female C57BL/6 mice, EAE was induced with a myelin oligodendrocyte glycoprotein epitope (MOG35-55) in CFA. As mice developed disease (MCS 2.0± 0.5), mice were injected with a hepatocyte-directed viral vector encoding MOG (e.g., AAV.MOG vector) and began daily administration of prednisolone (PRDL) via oral gavage (10 mg/kg animal) every 24 hours until day 7. Control mice were treated with prednisolone only, without the administration of vector or with Null vector. At day 7, prednisolone treatment was discontinued, except for the half of the control group receiving treatment which continued receiving prednisolone.
An experiment was performed to assess the effect of supplementing rAAV therapy with PRDL in high clinical score mice. C57BL/6 mice were administered AAV.MOG or AAV.Null control at disease onset, or a mean clinical score of 2.0±0.5. Subsequently, at the peak of disease, or an MCS ≥ 3.0, mice were administered oral gavage of PRDL (10 mg/kg). […] Subsequently, at an MCS ≥ 3.0, mice were administered oral gavage of PRDL (10 mg/kg).
In an experiment in which the order of administrations was essentially reversed, C57BL/6 mice received AAV.MOG or AAV.Null after EAE developed to an MCS of 2.5 or higher. At the peak of disease (MCS ≥3.0), mice were started on oral gavage of PRDL as before.

CD4+CD25hiFOXP3+ Tregs = assay: Peripheral blood Treg phenotyping before and after rapamycin; format: in vivo, C57BL/6 mice; settings: after rapamycin
Description: Flow Cytometry. Peripheral blood cells or splenocytes harvested from mice and processed to produce single-cell suspensions were stained with antibodies to CD3 (145-2C11), CD4 (RM4-5), CD25 (PC61), CD8 (53-6.7), B220 (RA3-6B2), CD44 (IM7), and CD62L (MEL14) (BD Biosciences, San Jose, CA, USA). Class II MHC tetramers included MOG38-49/I-Ab class II MHC (GWYRSPFSRVVH) and h.CLIP87-101 (PVSKMRMATPLLMQA), and were provided by the NIH Tetramer Core (Emory University, Atlanta, GA, USA). Red blood cell lysis was performed with VersaLyse (Beckman Coulter, Brea, CA, USA). Intracellular staining for FOXP3 was performed using the FOXP3 staining kit (eBioscience, San Diego, CA, USA). Samples were analyzed on an LSR-II flow cytometer (BD Biosciences) and post-analyzed using FCS Express 4 (Denovo Software, Los Angeles, CA, USA).
Rapamycin blocks the activation of a serine/threonine protein kinase called mammalian target of rapamycin (mTOR), which has a potent anti-proliferative effect on antigen-stimulated effector T and B cells. […] In contrast, when analyzed after the final rapamycin dose on day 10, there was an ~33% difference in total Tregs between control mice receiving rapamycin alone and AAV8.MOG-treated animals (FIGS. 24D and 24E).
CD44 is a cell-surface glycoprotein involved in cell-to-cell interactions that are important in activation, migration, and apoptosis.

[1] = system: established MOG35-55-induced EAE; assay: Therapeutic AAV8.MOG with transient rapamycin immunosuppression in established EAE; format: in vivo, C57BL/6 mice
Method: Vector Administration. […] Two weeks later, EAE was induced. To evaluate the therapeutic effect of vector administration, EAE was induced first in 9- to 11-week-old mice before the administration of vectors. As mice reached the targeted/indicated severity of disease they were injected with […] of AAV8.MOG or control vector (scAAV.GFP or sham/PBS) via the tail vein. Rapamycin (LC Laboratories, Woburn, MA, USA) was dissolved in a vehicle solution containing (0.2% w/v) carboxymethyl-cellulose sodium salt (C-5013) and (0.25% v/v) polysorbate-80 (P-8074) (Sigma, St. Louis, MO, USA) in distilled water and stored at 4° C. protected from light according to the manufacturer’s instructions. Rapamycin (5 mg/kg) was given i.p. as indicated for a total of three and five doses beginning on the day of vector administration.
To test the hypothesis, the experimental parameters that previously produced the smallest degree of disease reversal were reestablished (FIG. 23C). EAE was induced and AAV8.MOG treatment was withheld until mice developed complete tail paralysis with hind-leg paresis (MCS: 1.4 ± 0.1, combined). Immediately after being treated with either AAV8.MOG or PBS/control, all mice received an intraperitoneal injection of rapamycin (5 mg/kg). Subsequently, mice received two additional doses of rapamycin (5 mg/kg) 48 hr apart (FIGS. 24). As expected, EAE disease progressed quickly and both groups of mice developed severe neurological deficits and paralysis (peak MCS: 2.9-3.0) (FIG. 24A). […] In contrast, neurological deficits in AAV8.MOG-treated mice continued to decrease, and all but one animal (90%) achieved complete remission (final MCS: 0.5 ± 0.3) (FIG. 24A).
Next, the effectiveness of the combined immunotherapy in late and end-stage EAE disease was tested. […] Remarkably, mice that received the AAV8.MOG/rapamycin immunotherapy, 71% (FIG. 24B) and 80% (FIG. 24C), respectively, responded to the treatment and went into near-complete remission (MCS: […]) by day ~30.

[2] = system: plasma alanine aminotransferase (ALT); assay: Plasma alanine aminotransferase (ALT) activity; format: in vivo, C57BL/6 mice
Description: Although various proteins have been safely expressed in the liver following AAV gene transfer,^89 evaluating the long-term stability of MOG expression in hepatocytes in the context of induced EAE was of interest. […] Additionally, hepatocyte expression of MOG persisted in the mice that received AAV8.MOG until termination of experiment at 200 days after EAE induction (FIG. 20A).
Plasma ALT levels were also monitored as an indicator of liver damage and failure of therapy. As reported above, the level of ALT activity detected in AAV8.MOG-treated mice and control mice was unremarkable throughout the rapamycin treatment window (FIGS. 24G and 24H). […] Based on the profound level of neurological impairment the control mice were experiencing, the significant rise in ALT is indicative of liver toxicity associated with end-stage organ failure (FIGS. 24B and 24C).

| Compound | effect of PRDL on induction of tolerance by vector (MOG35-55-induced EAE) | effect of PRDL on induction of tolerance by vector (MOG35-55-induced EAE; listed as PDRL) | increase in activated Tregs (CD4+CD44+CD25hiFOXP3+) (CD4+CD25hiFOXP3+ Tregs) [%] | final MCS ([1]; rapamycin-only control mice, 35 days post-treatment, late-stage cohorts) | final MCS ([1]; treated at MCS 1.4 ± 0.1, all mice rapamycin 5 mg/kg i.p. x3) | mice relapsed by day 10 ([1]; treated at MCS 1.4 ± 0.1, rapamycin without vector) [%] | plasma ALT levels ([2]; 35 days post-treatment) | plasma ALT activity ([2]; throughout the rapamycin treatment window) |
| --- | --- | --- | --- | --- | --- | --- | --- | --- |
| C[C@]12C=CC(=O)C=C1CC[C@@H]1[C@@H]2[C@@H](O)C[C@@]2(C)[C@H]1CC[C@]2(O)C(=O)CO [PRDL, prednisolone] | did not interfere with induction of tolerance | did not interfere with, nor supplement, the ability of AAV.MOG to suppress EAE | – | – | – | – | – | – |
| CO[C@H]1C[C@@H]2CC[C@@H](C)[C@@](O)(O2)C(=O)C(=O)N2CCCC[C@H]2C(=O)O[C@H]([C@H](C)C[C@@H]2CC[C@@H](O)[C@H](OC)C2)CC(=O)[C@H](C)/C=C(\C)[C@@H](O)[C@@H](OC)C(=O)[C@H](C)C[C@H](C)/C=C/C=C/C=C/1C [rapamycin] | – | – | 10.5 | 3.6 ± 0.5 | 3.5 ± 0.3 | 100 | significant increase in plasma ALT levels | unremarkable |
